Assay results reported in publication PMC10009108, “Design, synthesis and screening of indole acetic acid-based tri-azo moieties as antioxidants, anti-microbial and cytotoxic agents” (Frontiers in Pharmacology, 2023).
Values after ≈ are worked out from the molar mass of the structure shown.

How the values were obtained:
[1] = test system: Streptomyces 85 E strains; test: Protein kinase inhibition assay; format: cell-based; parameters: key: Active = Bacterial activity; --- = no activity; settings: Sample Concentration = 20 μg/mL; Surfactin B 20 μg/mL
Experimental: The protocol followed for this is mentioned ([Fatima et al., 2015]). To assess the test compound’s inhibitory potential, Streptomyces 85 E strains were used, which were refreshed in tryptone soya broth at 37 for 1 day. Spores from refreshed cultures were utilized to prepare the bacterial culture. 100 μg compound was loaded on 5 mm discs of filter paper. These were kept on sowed plates. DMSO-permeated discs were the -ve control. The incubation period was 7 days, and outcomes were stated as bald and clear zones of inhibition.
These synthetic products were evaluated to estimate the inhibitory potential for protein kinase of […] 85 E. Protein kinase is involved with the mycelium production of this species, so the growth patterns were observed as the bald zone. […] One of the propitious targets in cancer treatment is the inhibition of protein kinases. Protein phosphorylation by protein kinases at various residues regulates diverse biological processes, which may include apoptosis, proliferation and differentiation of cells. Deregulation at any step in early tumorigenesis may lead to cancer ([Yao et al., 2011]). Aerial hyphae formation in Streptomyces depends upon protein kinase activity; this scenario is exploited in this test; to inquire about these compounds’ kinase inhibition potential and to look at their anti-cancer potential. The advantage of using Streptomyces for kinase inhibition assay is its predisposition to a wide range of eukaryotic cells. Whole-cell assay of Streptomyces not only identifies the compound’s cytotoxic potential but also identifies signal transduction inhibitors for various activities, e.g., antitumor, anti-mycobacterial, and anti-infective ([Waters et al., 2002]). […] Activity with a bald zone of 10.5 mm and a clear zone of 7.5 mm, following is 5a with a bald zone of 9 mm and a clear zone of 6 mm, and for 5g, values are 7.5 and 6 mm, respectively. It means that these compounds have the potential for protein kinase inhibition as well as the toxicity of the compound.

[2] = test system: Aspergillus niger (FCBP-0198); test: Antifungal disc diffusion assay; format: cell-based; parameters: key to Zone of inhibition, A. niger: --- = no anti-fungal activity; settings: 20 μg/disc
Experimental: (§1) The antifungal response to these chemical moieties was evaluated through a procedure designated by ([Zahra et al., 2017]). Amphotericin B (4 mg/mL DMSO) is used as + ve control and DMSO as-ve one (5 μL/disc). Sterile SDA-coated plates were used, on which 100 µL of suspension of spores for each strain (previously reaped-in-Tween-20 solution) was spread. Discs of sterile filter paper containing 5 µL of sample solution (4 mg/mL DMSO) were kept on plates and incubated for 2 days at 28°C. Zones of inhibition were recorded.
(§2) The Synthetic compound library was subjected to an antifungal assay using five different strains of Fungai, i.e., Fusarium solani (FCBP-0291), Aspergillus fumigatus (FCBP-66), Aspergillus flavus (FCBP-0064), Aspergillus niger (FCBP-0198) and Mucor species (FCBP-0300). Amphotericin B was the standard drug used. […] The outcomes are concise in Table 5.

MRSA [3] = test: Antibacterial assay, resistant strains; format: cell-based, Staphylococcus aureus; settings: 25 μg/mL; resistant strain
[4] = test system: Streptomyces 85 E strains; test: Protein kinase inhibition assay; format: cell-based; parameters: key to Bald zone: Active = Bacterial activity; --- = no activity; settings: Sample Concentration = 20 μg/mL; Surfactin B 20 μg/mL
[5] = test system: Mucor species (FCBP-0300); test: Antifungal disc diffusion assay; format: cell-based; parameters: key to Zone of inhibition, Mucor: --- = no anti-fungal activity; settings: 20 μg/disc
Experimental: as §1, §2

[6] = test system: Aspergillus flavus (FCBP-0064); test: Antifungal disc diffusion assay; format: cell-based; parameters: key to Zone of inhibition, A. flavus: --- = no anti-fungal activity; settings: 20 μg/disc
Experimental: as §1, §2

MRSA [7] = test: Antibacterial assay, resistant strains; format: cell-based; settings: Staphylococcus aureus, resistant strain
Description: (§3) The micro broth dilution method was used to establish the antibacterial potential of test samples against Staphylococcus aureus (ATCC-6538), Bacillus subtilis (ATCC-6633), Escherichia coli (ATCC-25922), Klebsiella pneumoniae (ATCC-1705), and Pseudomonas aeruginosa (ATCC-15442) and for the resistant strains of MRSA Staphylococcus aureus, P. aeruginosa and Escherichia coli. The procedure used is described by ([Sarker et al., 2007]). Bacterial inoculum was formed under aseptic conditions keeping the density near 5 × 10^4 CFU/mL in pre-autoclaved nutrient broth. Test samples of an aliquot of 5 µL were shifted to labeled wells of 96 well plates, and after that addition of 195 µL of nutrient broth; was accomplished. After that, a 2-fold serial dilution of every sample was arranged to get final concentrations of 12.5 μg/mL. Then, with the help of a micropipette, 195 µL of bacterial culture of respective strains was poured into each well; further advancement was incubating of plates for 30 min at the temperature of 37°C. […] Incubation of plates was again carried out at 37°C for 1 day, absorbance was noted, and net change in turbidity was the difference between two values of absorbance.
(§4) Schiff base tri-azo compounds were investigated for antibacterial potential. […] 6.25 μg/mL for 5b and 5g, and the least, Table 4 3.12 μg/mL was for 5f. […] Substituents with electron-withdrawing attributes, e.g., -NO2, -Cl, -OH on the aromatic ring, assert a great impact on the antibacterial activity of synthetic compounds. It is also observed that an increase in the number of -OH groups tend to enhance the activity ([Hosamani and Shingalapur, 2011]). Due to the difference in cell-wall composition of Gram + ve and -ve bacteria, different compounds show different features towards the same micro-organism ([Goszczyn’ska et al., 2015]).

[8] = test system: Klebsiella pneumoniae (ATCC-1705); test: Antibacterial assay, micro broth dilution; format: cell-based; parameters: key: Active = Bacterial activity; --- = no activity; settings: 25 μg/mL
resistant P. aeruginosa = test: Antibacterial assay, resistant strains; format: cell-based; parameters: key to Antibacterial activity, resistant P. aeruginosa: Activity: Positive = have anti-bacterial activity; --- = no anti-bacterial activity; settings: 25 μg/mL; resistant strain
Description: as §3, §4

resistant S. aureus = test: Antibacterial assay, resistant strains; format: cell-based, Staphylococcus aureus; parameters: key to Antibacterial activity, resistant S. aureus: Activity: Positive = have anti-bacterial activity; --- = no anti-bacterial activity; settings: 25 μg/mL; resistant strain
Description: as §3, §4

resistant E.coli = test: Antibacterial assay, resistant strains; format: cell-based, Escherichia coli; parameters: key to Antibacterial activity, resistant E.coli: Activity: Positive = have anti-bacterial activity; --- = no anti-bacterial activity; settings: 25 μg/mL; resistant strain
Description: as §3, §4

[9] = test system: Staphylococcus aureus (ATCC-6538); test: Antibacterial assay, micro broth dilution; format: cell-based; parameters: key: Active = Bacterial activity; --- = no activity; settings: 25 μg/mL
[10] = test system: Escherichia coli (ATCC-25922); test: Antibacterial assay, micro broth dilution; format: cell-based; parameters: key: Active = Bacterial activity; --- = no activity; settings: 25 μg/mL

| MIC (MRSA [7]) [µg/mL] | SMILES | Clear zone [1] | Zone of inhibition, A. niger [2] | Antibacterial activity, MRSA: Activity (MRSA [3]) | Bald zone [4] | Zone of inhibition, Mucor [5] | Zone of inhibition, A. flavus [6] | Antibacterial activity, Klebsiella pneumoniae: Activity [8] | Antibacterial activity, resistant P. aeruginosa: Activity (resistant P. aeruginosa) | Antibacterial activity, resistant S. aureus: Activity (resistant S. aureus) | Antibacterial activity, resistant E.coli: Activity (resistant E.coli) | Antibacterial activity, S. aureus: Activity [9] | Antibacterial activity, E. coli: Activity [10] | Clear zone [4] [mm] |
| --- | --- | --- | --- | --- | --- | --- | --- | --- | --- | --- | --- | --- | --- | --- |
| 12.5 (≈ 35.8 µM) | Oc1cccc(C=Nn2c(Cc3c[nH]c4ccccc34)n[nH]c2=S)c1 [Compound 5a] | 6 mm | --- | Active | 9 mm | --- | --- | Active |  |  |  |  |  |  |
| 12.5 (≈ 34.4 µM) | COc1cccc(C=Nn2c(Cc3c[nH]c4ccccc34)n[nH]c2=S)c1 [Compound 5b] | 7.5 mm | --- | Active | 10.5 mm | --- | --- | Active | --- | --- | --- | --- | --- |  |
| 12.5 (≈ 34 µM) | S=c1[nH]nc(Cc2c[nH]c3ccccc23)n1N=Cc1ccc(Cl)cc1 [Compound 5c] | --- | --- | Active | --- | --- | --- | Active | --- | --- | --- | --- | Active |  |
| 12.5 (≈ 33 µM) | O=[N+]([O-])c1ccc(C=Nn2c(Cc3c[nH]c4ccccc34)n[nH]c2=S)cc1 [Compound 5d] | --- | --- | Active | --- | --- | --- | Active | --- | --- | --- | --- | Active |  |
| 12.5 (≈ 35.8 µM) | Oc1ccc(C=Nn2c(Cc3c[nH]c4ccccc34)n[nH]c2=S)cc1 [Compound 5e] | --- | --- | Active | --- | --- | --- | Active | --- | --- | --- | --- | Active |  |
| 12.5 (≈ 34 µM) | S=c1[nH]nc(Cc2c[nH]c3ccccc23)n1N=Cc1cccc(Cl)c1 [Compound 5f] | --- | --- | Active | --- | --- | --- | Active | --- | --- | --- | Active | --- |  |
| 12.5 (≈ 29.5 µM) | COc1cc(C=Nn2c(Cc3c[nH]c4ccccc34)n[nH]c2=S)cc(OC)c1OC [Compound 5g] |  | --- | Active | 7.5 mm | --- | --- | Active | --- | --- | --- | Active | --- | 6 |
